Test results: patent publication US9233946B2, “Sulfonamide compounds” (KANCERA AB, priority 2010, dated 2016)
Read-outs that look alike come from different tables or passages of the source.

Key:
PANC-1 cells = test: Quantification of F-2,6-P2 in PANC-1 cells; assay type: cell-based; details: Homo sapiens, PANC-1; read-out: IC50 based on quantification of F-2,6-P2
Description: (§1) The relative kinase (formation) and phosphatase (degradation) activities of the bi-functional enzymes PFKFB3 and PFKFB4 control the intracellular levels of the regulator F-2,6-P2, which acts as an allosteric activator of glycolysis. The levels of F-2,6-P2 have been determined in three different cancer cell lines (MCF-7, PANC-1 and NUGC-3) using the van Shaftingen assay. The assay protocols described under “Methods for measurement of enzymatic activity of PFKFB3 and PFKFB4, Method A” have been adapted for the measurement of the inhibitory effect of compounds on the kinase activity of the various isoforms of the bifunctional enzyme (endogenously expressed) in the different cell lines. The modifications are described in the protocol below. All reagents were purchased from commercial sources or prepared inhouse.
Cell Line B (PANC-1, Human Pancreatic Carcinoma Cell Line)
• Cells: PANC-1 (ATCC-CRL-1469). Lot. no: 58564651. • Growth medium: Dulbecco's Modified Eagle's Medium, DMEM, ATCC-30-2002 10% FBS, Invitrogen, 10106-169
Cells were seeded at a concentration of 250 000 cells/mL in 100 μL growth medium (25 000 cells/well)
Starvation medium: DMEM/F12 without phenol red and glucose free, SVA, 991373 0.25% FBS, Invitrogen, 10106-169
Induction medium: DMEM/F12 without phenol red and glucose free, SVA, 991373 0.25% FBS, Invitrogen, 10106-169 (same as starvation medium)
Cells were seeded in 96-well Corning Costar tissue culture plates (CLS3595, Sigma-Aldrich) using the concentrations specified above for the three different cell lines A-C and incubated over night at 37° C. and 5% CO2. Row A was left empty. Next day the growth medium was discarded and replaced with 100 μL starvation medium. The plates were incubated for 18 h at 37° C. and 5% CO2. After 18 h of starvation the cells were induced with 100 μL compound or control solutions. Compounds were either tested in two concentrations (50 μM and 10 μM) or in dose response curves starting from 50 μM and the final DMSO concentration in assay plates was 0.5%. Also a dose response curve of a reference inhibitor was included in row H on each plate. All compounds were tested in duplicate plates. Compounds (in 96 well CLS 3365, Sigma-Aldrich) were serial diluted in DMSO from 10 mM compound DMSO stock solutions with Janus (automated liquid handling workstation from PerkinElmer). 5 μL were transferred to a Greiner deep well plate (736-0155, VWR) with 495 μL starvation medium. The final start concentration of compounds in the dilution plate was 100 μM, 1% DMSO. For compounds tested as single points, 10 mM compound solutions were diluted five fold in DMSO to 2 mM, followed by the transfer of 5 μL to separate dilution plates with 495 μL starvation medium. The final concentration of compounds in these dilution plates were 100 or 20 μM, respectively, and final concentration of DMSO was 1%. The plates were incubated at 37° C. and 5% CO2 for 1 h, followed by the addition of 10 μL 20 mM D-glucose in starvation medium. Controls, with and without 1 mM glucose, were included in row B. The final assay volume was 210 μL per well. After 2 h of incubation at 37° C. and 5% CO2, supernatants were discarded and the cells were lysed by the addition of 25 μL 250 mM NaOH. The plates were incubated at 37° C. and 5% CO2 for 5 min followed by an addition of 75 μL MilliQ dH2O. The supernatants were further diluted with 210 μL MilliQ dH2O to a final concentration of 20 mM NaOH. 200 μL were transferred to NUNC 96-well plates (7322661, VWR) and the plates were sealed and stored at −20° C. until analysis.
(§2) The amount of F-2,6-P2 was quantified based on the coupled enzymatic reaction described by Van Schaftingen. If necessary the samples were further diluted in 20 mM NaOH before quantification. Plates stored at −20° C. were thawed and the F-2,6-P2 quantification was initiated by transferring 40 μL from each well of the NUNC plate to the corresponding position in a trans-parent 96-well SpectraPlate-MB (6005649, PerkinElmer). […]

[1] = test system: NUGC3 gastric tumor cell line; test: Inhibition of cancer cell proliferation (Sulphorhodamine B total cellular protein); assay type: cell-based, human; details: added at 0 h and again at 48 h, total of 120 h, FIG. 1
Method: To assess the antiproliferative response elicited by the compounds of the present invention in different tumour cell lines, total cellular protein in samples was quantified using the Sulphorhodamine B kit, TOX6, (Sigma-Aldrich).
Cells from selected tumour cell lines were cultured at 37° C., 5% CO2, normoxia, in DMEM/F12 medium +10% FBS. Cells were plated at a density of 6-12 000 cells/well, depending on cell-line specific size and growth characteristics, and allowed to attach overnight.
Culture media supernatants were then removed and replaced with either fresh medium or with compounds of the present invention diluted in cell culture medium to indicated concentrations, and to a maximal DMSO concentration of 0.1%. All treatments were in quadruplicate. After indicated incubation times, samples were washed with PBS and the total cellular protein in each sample was quantitated after precipitation with TCA according to the manufacturer's instructions. […] After air drying, bound dye was solubilized in 200 μL 10 mM Tris base, and the absorbance of dye was measured at a wavelength of 565 nm. To quantify growth, samples were collected also at t=0 h, and the resulting absorbance was set to 100%.
In brief, the Example 74 was added at the indicated concentrations at 0 h and again at 48 h. After a total of 120 h, the measured effect on cancer cell proliferation was quantified as described above.

NUGC-3 cells = test: Quantification of F-2,6-P2 in NUGC-3 cells; assay type: cell-based; details: Homo sapiens, read-out: IC50 based on quantification of F-2,6-P2
Description: as §1
Cell Line C (NUGC-3, Human Gastric Cancer Cell Line)
Cells were seeded at a concentration of 350 000 cells/mL in 100 μL growth medium (35 000 cells/well) […]
as §2

MCF-7 cells = test: Quantification of F-2,6-P2 in MCF-7 cells; assay type: cell-based; details: Homo sapiens
Description: as §1
Cell Line A (MCF-7, Human Breast Adenocarcinoma Cell Line)
• Cells: MCF-7(ATCC-HBT22). Lot. no: 58469417. • Growth Medium: • Eagle's Minimum Essential Medium (EMEM), Sigma-Aldrich #M5650, 500 ml • 10% FBS, Invitrogen, 10106-169 • 5 mL 200 mM L-glutamine, Invitrogen 25030024 • 5 mL 100 mM Sodium Pyruvate, Invitrogen 11360039 • 0.5 mL 10 mg/ml Bovine Insulin, Sigma-Aldrich 10516 […]
The amount of F-2,6-P2 was quantified based on the coupled enzymatic reaction described by Van Schaftingen. If necessary the samples were further diluted in 20 mM NaOH before quantification. […]

PFKFB3 = PFKFB3 (Homo sapiens (Human), UniProt Q16875); test: PFKFB3 kinase activity, Method B (ADP-Glo Kinase Assay); assay type: biochemical
Sequence of PFKFB3 (Q16875 whole entry): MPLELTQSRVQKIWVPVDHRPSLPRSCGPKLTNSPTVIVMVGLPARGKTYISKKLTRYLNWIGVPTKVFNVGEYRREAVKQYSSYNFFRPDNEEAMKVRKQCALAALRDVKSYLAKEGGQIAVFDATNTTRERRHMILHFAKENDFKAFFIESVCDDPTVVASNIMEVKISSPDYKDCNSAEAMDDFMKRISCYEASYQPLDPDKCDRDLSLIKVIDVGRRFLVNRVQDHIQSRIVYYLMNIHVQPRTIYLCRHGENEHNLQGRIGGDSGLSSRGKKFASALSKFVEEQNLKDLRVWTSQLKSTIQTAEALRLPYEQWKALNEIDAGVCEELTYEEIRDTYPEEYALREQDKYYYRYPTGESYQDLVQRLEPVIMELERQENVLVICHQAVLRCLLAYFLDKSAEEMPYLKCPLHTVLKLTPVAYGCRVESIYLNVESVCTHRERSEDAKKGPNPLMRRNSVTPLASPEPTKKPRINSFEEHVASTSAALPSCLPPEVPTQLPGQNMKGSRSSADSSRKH
Description: The PFKFB3 (placenta form) and PFKFB4 were produced and purified to homogeneity from E. coli at Biovitrum and at Sprint Bioscience. All other reagents were purchased from commercial sources. Two independent methods have been used for determination of the kinase activity of PFKFB3 (Method A and Method B). Method B has been used for determination of the kinase activity of PFKFB4.
Method B: The kinase activity of the bi-functional enzyme is readily quantified based on the production of ADP and F-2,6-P2 from ATP and F6P. The ADP is detected with a kit, ADP-Glo™ Kinase Assay^(a-e), from Promega. The assay is a luminescent ADP detection assay that measures kinase activity by quantifying the amount of ADP produced during the kinase reaction. The assay is performed in two steps; first, after the kinase reaction, an equal volume of ADP-Glo™ Reagent is added to terminate the kinase reaction and deplete the remaining ATP. Second, the Kinase Detection Reagent is added to simultaneously convert ADP to ATP and allow the newly synthesized ATP to be measured using a luciferase/luciferine reaction. The light generated is measured using a luminescence counter (1450 MicroBeta TriLux).
The assay was performed in white 384-well microtiter plates (OptiPlate, 6007299, PerkinElmer) by consecutive additions of 0.1 μL of a test compound solution (serial diluted in DMSO from compound DMSO stock solution and dispensed by acoustic dispensing from UV-star 384-well plate 7360153, VWR), 5 μL of enzyme solution and 5 μL of a substrate (fructose-6-phosphate (F6P) and adenosine-5′-triphosphate (ATP)) containing solution. […] Four reference dose response curves, one of them being the QC compound, were included in row O1-2, P1-2, and serial diluted as the test compounds. The final concentrations of all reagents in a total assay volume of 10.1 μL per well were: • 50 mM Tris-HCl at pH 8.0 • 10 mM MgCl2 • 5 mM Na2HPO4 at pH 8.0 • 81.48 nM PFKFB3 or 145 nM PFKFB4 • 8 μM ATP • 100 μM F6P (acid treated and then neutralized to remove any contaminating F-2,6-P2; see Van Schaftingen, 1984) • 0.005% Tween-20 • 1 mM dithiothreitol (DTT) • A test compound at various concentrations or controls (final DMSO concentration 0.99%)
Enzyme, compounds and controls were pre-incubated at room temperature for 15 min before the addition of substrate solution. The enzymatic reaction was allowed to proceed for 20 min (PFKFB3) or 40 min (PFKFB4) at room temperature. The reaction was terminated by the addition of 10 μL of ADP-Glo™ Reagent to all wells and the plate was incubated for 40 min at room temperature. After addition of 20 μL Kinase Detection Reagent to all wells the plate was incubated for 30 min at room temperature, followed by measurement in 1450 MicroBeta TriLux. All plates were centrifuged after each addition (room temperature, short spin, 500 RPM, Megafuge 1.0 Heraeus Instruments).
The inhibitory potency or IC50 values of test compounds on the kinase activity of PFKFB3 or PFKFB4 were calculated using a four-parameter model (model 205) in XLfit (IDBS ActivityBase XE Runner).

Row | SMILES | IC50 (PFKFB3) [nM] | also measured
1 | COC(=O)c1cccc(NS(=O)(=O)c2sc3ccc(Cl)cc3c2C)c1 [Example 74, Methyl 3-{[(5-chloro-3-methyl-1-benzothien-2-yl)sulfonyl]amino}benzoate] |  | IC50 (PANC-1 cells): 3700 nM; effect on cell proliferation [1]: growth-inhibitory effect; IC50 (NUGC-3 cells): 4000 nM
2 | COC(=O)c1cc(NS(=O)(=O)c2sc3ccc(Cl)cc3c2C)ccc1O [Example 140, Methyl 5-{[(5-chloro-3-methyl-1-benzothiophen-2-yl)sulfonyl]amino}-2-hydroxybenzoate] |  | IC50 (MCF-7 cells; MCF7, cells seeded in the starvation medium containing 25 mM glucose, 25 000 cells/well, read-out: IC50 based on quantification of F-2,6-P2): 1200 nM
3 | O=C(O)c1cccc(NS(=O)(=O)c2cc(-c3ccccc3O)c(Cl)s2)c1O [Example 137, 3-({[5-Chloro-4-(2-hydroxyphenyl)thiophen-2-yl]sulfonyl}amino)-2-hydroxybenzoic acid] | 5180 | 
4 | O=S(=O)(Nc1cccc(-c2nnn[nH]2)c1)c1cc(Cl)c(Cl)cc1Cl [Example 71, 2,4,5-Trichloro-N-[3-(1H-tetrazol-5-yl)phenyl]benzenesulfonamide] | 2390 | 
5 | O=C(O)c1cccc(NS(=O)(=O)c2cccc(-c3ccccc3)c2)c1 [Example 80, 3-[(Biphenyl-3-ylsulfonyl)amino]benzoic acid] | 3100 | 
6 | Cc1c(S(=O)(=O)Nc2cccc(-c3cnco3)c2)sc2ccc(Cl)cc12 [Example 141, 5-Chloro-3-methyl-N-[3-(1,3-oxazol-5-yl)phenyl]-1-benzothiophene-2-sulfonamide] |  | IC50 (MCF-7 cells; MCF7, read-out: IC50 based on quantification of F-2,6-P2): 3000 nM

Continued by falling IC50 (PFKFB3), values first:

Row | IC50 (PFKFB3) [nM] | SMILES | also measured
7 | 1300 | O=S(=O)(Nc1cccc(-c2nnn[nH]2)c1)c1ccc(-c2ccccc2)s1 [Example 60, 5-Phenyl-N-[3-(1H-tetrazol-5-yl)phenyl]thiophene-2-sulfonamide] | 
8 | 620 | O=S(=O)(Nc1cccc(-c2nnn[nH]2)c1)c1ccc(-c2cc(F)cc(F)c2)s1 [Example 23, 5-(3,5-Difluorophenyl)-N-[3-(1H-tetrazol-5-yl)phenyl]thiophene-2-sulfonamide] | 
9 | 570 | O=S(=O)(Nc1cccc(-c2nnn[nH]2)c1)c1ccc(Cl)c2nonc12 [Example 73, 7-Chloro-N-[3-(1H-tetrazol-5-yl)phenyl]-2,1,3-benzoxadiazole-4-sulfonamide] | 
10 | 130 | Cc1ccc2sc(S(=O)(=O)Nc3cccc(-c4nnn[nH]4)c3)c(C)c2c1 [Example 33, 3,5-Dimethyl-N-[3-(1H-tetrazol-5-yl)phenyl]-1-benzothiophene-2-sulfonamide] | 
